ChEMBL document CHEMBL1201862, “PubChem BioAssay data set” (2004)
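Results reflect a 48-hour exposure of cells in 96-well plates to compound at five concentrations. GI50 marks 50% less growth.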 Active and inactive are the calls of the source. Rule as the data show it: active = GI50 up to about 1.1 µM and inactive = higher.

Experiments:
Assay in all cases: NCI anticancer screen, dose series, 48 h
OVCAR-8 = tested on: OVCAR-8
NCI-H460 = tested on: NCI-H460
NCI-H23 = tested on: NCI-H23
KM12 = tested on: KM12
HOP-62 = tested on: HOP-62
HOP-92 = tested on: HOP-92
MCF7 = tested on: MCF7
MDA-N = tested on: MDA-N
HCC 2998 = tested on: HCC 2998
COLO 205 = tested on: COLO 205
M14 = tested on: M14
HT-29 = tested on: HT-29
SNB-75 = tested on: SNB-75
CAKI-1 = tested on: CAKI-1
HCT-116 = tested on: HCT-116
SF-268 = tested on: SF-268
A549 = tested on: A549
SN12C = tested on: SN12C
SNB-19 = tested on: SNB-19
Malme-3M = tested on: Malme-3M

| SMILES | GI50 (OVCAR-8) | GI50 (NCI-H460) | GI50 (NCI-H23) | GI50 (KM12) | GI50 (HOP-62) | GI50 (HOP-92) | GI50 (MCF7) | GI50 (MDA-N) | GI50 (HCC 2998) | GI50 (COLO 205) | GI50 (M14) | GI50 (HT-29) | GI50 (SNB-75) | GI50 (CAKI-1) | GI50 (HCT-116) | GI50 (SF-268) | GI50 (A549) | GI50 (SN12C) | GI50 (SNB-19) | GI50 (Malme-3M) |
| --- | --- | --- | --- | --- | --- | --- | --- | --- | --- | --- | --- | --- | --- | --- | --- | --- | --- | --- | --- | --- |
| COc1ccc2c(c1)-c1nn(CCN(C)C)c3ccc(C(=O)NCCCN(C)CCCNC(=O)c4ccc5c6c(c7cc(OC)ccc7nc46)NN5CCN(C)C)c(c13)N2 | 0.0133 µM (active) | 0.0187 µM (active) | 0.0344 µM (active) | 0.0284 µM (active) | 0.0318 µM (active) | 0.0478 µM (active) | 0.0202 µM (active) | 0.0361 µM (active) | 0.045 µM (active) | 0.0169 µM (active) | 0.0822 µM (active) | 0.0213 µM (active) | 0.114 µM (active) | 0.346 µM (active) | < 0.01 µM (active) | 0.153 µM (active) | 0.0136 µM (active) | 0.0225 µM (active) | 0.0159 µM (active) | 0.106 µM (active) |
| CC(C)/C(Cl)=N/OC(NC(=O)Nc1ccc(Cl)c(Cl)c1)(C(F)(F)F)C(F)(F)F | 17.7 µM (inactive) | 24.5 µM (inactive) | 17.8 µM (inactive) | 18.2 µM (inactive) | 21.6 µM (inactive) | 10.4 µM (inactive) | 19.4 µM (inactive) | 16.4 µM (inactive) | 20.1 µM (inactive) | 3.17 µM (inactive) | 5.65 µM (inactive) | 15.4 µM (inactive) | 16.9 µM (inactive) | 2.16 µM (inactive) | 7.36 µM (inactive) | 18.2 µM (inactive) | 23.2 µM (inactive) | 11 µM (inactive) | 20.2 µM (inactive) | 2.37 µM (inactive) |
| CC(CCC(=O)O)[C@H]1CCC2[C@H]3C(CC(=O)[C@@]21C)[C@@]1(C)CCC(O)C[C@H]1C[C@@H]3O (stereo not given in full) | > 100 µM (inactive) | > 100 µM (inactive) | > 100 µM (inactive) | > 100 µM (inactive) | > 100 µM (inactive) | > 100 µM (inactive) | > 100 µM (inactive) | > 100 µM (inactive) | > 100 µM (inactive) | > 100 µM (inactive) | > 100 µM (inactive) | > 100 µM (inactive) | > 100 µM (inactive) | > 100 µM (inactive) | > 100 µM (inactive) | > 100 µM (inactive) | > 100 µM (inactive) | > 100 µM (inactive) | > 100 µM (inactive) | > 100 µM (inactive) |
| CN(C)c1nc(N)c(C#N)c(C#N)c1C#N | > 10 µM (inactive) | > 10 µM (inactive) | > 7.46 µM (inactive) | > 10 µM (inactive) | > 10 µM (inactive) | > 10 µM (inactive) | > 10 µM (inactive) | > 10 µM (inactive) | > 10 µM (inactive) | > 8.81 µM (inactive) | > 10 µM (inactive) | > 10 µM (inactive) | 9.68 µM (inactive) | > 10 µM (inactive) | > 10 µM (inactive) | > 10 µM (inactive) | > 10 µM (inactive) | > 10 µM (inactive) | > 10 µM (inactive) | > 10 µM (inactive) |
| CCOC(=O)NN(C(=O)OCC)C(C(=O)c1ccccc1)N(NC(=O)OCC)C(=O)OCC | > 100 µM (inactive) | > 100 µM (inactive) | > 100 µM (inactive) | > 100 µM (inactive) | > 100 µM (inactive) | > 100 µM (inactive) | > 100 µM (inactive) | > 100 µM (inactive) | > 100 µM (inactive) | > 100 µM (inactive) | > 100 µM (inactive) | > 100 µM (inactive) | > 100 µM (inactive) | > 100 µM (inactive) | > 100 µM (inactive) | > 100 µM (inactive) | > 100 µM (inactive) | > 100 µM (inactive) | > 100 µM (inactive) | > 100 µM (inactive) |
| COc1ccc2c(c1)nc1n2C(N)=Nc2ccccc2S1 | 18.4 µM (inactive) | 12.8 µM (inactive) | 40.6 µM (inactive) | 15.4 µM (inactive) | 53.1 µM (inactive) | 3.79 µM (inactive) | 11.3 µM (inactive) | 16.9 µM (inactive) | 31.8 µM (inactive) | 6.08 µM (inactive) | 10.6 µM (inactive) | 17.7 µM (inactive) | > 42.9 µM (inactive) | > 100 µM (inactive) | 5.3 µM (inactive) | 16.7 µM (inactive) | 29.7 µM (inactive) | 44.6 µM (inactive) | 39.3 µM (inactive) | 62.2 µM (inactive) |
| O=[N+]([O-])c1ccc(-n2nc3ccc4c(no[n+]4[O-])c3[n+]2[O-])c([N+](=O)[O-])c1 | 2.4 µM (inactive) | 5.55 µM (inactive) | 2.19 µM (inactive) | 1.79 µM (inactive) | 3.77 µM (inactive) | 2.96 µM (inactive) | 1.9 µM (inactive) | 2.08 µM (inactive) | 3.3 µM (inactive) | 1.54 µM (inactive) | 1.59 µM (inactive) | 4.69 µM (inactive) | 8.81 µM (inactive) | 2.42 µM (inactive) | 1.91 µM (inactive) | 5.05 µM (inactive) | 16 µM (inactive) | 2.56 µM (inactive) | 6.24 µM (inactive) | 2.45 µM (inactive) |
| O=c1oc2c(Cl)cc(Cl)cc2cc1-c1cn2c(n1)sc1ccccc12 | 87.1 µM (inactive) | > 100 µM (inactive) | 95.5 µM (inactive) | > 100 µM (inactive) | 53.5 µM (inactive) | 56.1 µM (inactive) | 44.1 µM (inactive) | 38.6 µM (inactive) | 24.5 µM (inactive) | 90.4 µM (inactive) | 78.7 µM (inactive) | 71.1 µM (inactive) | > 100 µM (inactive) | 71.6 µM (inactive) | 27.9 µM (inactive) | 65.8 µM (inactive) | > 100 µM (inactive) | 67.8 µM (inactive) | > 100 µM (inactive) | > 100 µM (inactive) |
| OC[C@@H](O)[C@H]1NC[C@@H](O)[C@H]1O | > 100 µM (inactive) | > 100 µM (inactive) | > 100 µM (inactive) | > 100 µM (inactive) | > 100 µM (inactive) | > 100 µM (inactive) | > 100 µM (inactive) | > 100 µM (inactive) | > 100 µM (inactive) | > 100 µM (inactive) | > 100 µM (inactive) | > 100 µM (inactive) | > 100 µM (inactive) | > 100 µM (inactive) | > 100 µM (inactive) | > 100 µM (inactive) | > 100 µM (inactive) | > 100 µM (inactive) | > 100 µM (inactive) | > 100 µM (inactive) |
| O=S(=O)(c1cccc(C(F)(F)F)c1)N1c2ccccc2-n2cccc2C1c1cccnc1 (stereo not given) | 44.3 µM (inactive) | 22.9 µM (inactive) | 8.49 µM (inactive) | 19.2 µM (inactive) | > 43.6 µM (inactive) | 26.9 µM (inactive) | 13.9 µM (inactive) | 26.9 µM (inactive) | 24.7 µM (inactive) | 16.5 µM (inactive) | 16.2 µM (inactive) | 18.1 µM (inactive) | 61.9 µM (inactive) | > 100 µM (inactive) | 18.8 µM (inactive) | > 43.2 µM (inactive) | 17.3 µM (inactive) | > 42.4 µM (inactive) | 32.6 µM (inactive) | 21.4 µM (inactive) |
| COc1cc2c(cc1O)Cc1c-2[n+](C)cc2cc(OC)c(OC)cc12 | 2.72 µM (inactive) | 3.28 µM (inactive) | 12.6 µM (inactive) | > 59.6 µM (inactive) | 6.61 µM (inactive) | > 77.3 µM (inactive) | 15.2 µM (inactive) | 34.9 µM (inactive) | > 100 µM (inactive) | > 74.3 µM (inactive) | 7.19 µM (inactive) | > 83 µM (inactive) | 63.2 µM (inactive) | 25.8 µM (inactive) | 15.3 µM (inactive) | 0.472 µM (active) | 38 µM (inactive) | 4.8 µM (inactive) | 1.64 µM (inactive) | > 86.5 µM (inactive) |
| C[C@H]1C2Cc3cc(O)ccc3[C@@]1(C)CCN2CCc1ccc(N)cc1 | 7.98 µM (inactive) | 30.3 µM (inactive) | > 100 µM (inactive) | 16.7 µM (inactive) | 8.69 µM (inactive) | 1.71 µM (inactive) | 15.2 µM (inactive) | 20.7 µM (inactive) | 13.6 µM (inactive) | 28.6 µM (inactive) | 18.4 µM (inactive) | 15.5 µM (inactive) | > 100 µM (inactive) | > 100 µM (inactive) | 15.9 µM (inactive) | 19.6 µM (inactive) | 28.6 µM (inactive) | 98.9 µM (inactive) | 81.7 µM (inactive) | 18.8 µM (inactive) |
| CO[C@]12S[C@@H]3CCCC[C@@]31C(C)(C)C(=O)N2c1ccccc1 | 30.1 µM (inactive) | 33 µM (inactive) | 28.8 µM (inactive) | 36.7 µM (inactive) | 16.7 µM (inactive) | 38 µM (inactive) | 27.4 µM (inactive) | 42.2 µM (inactive) | 51.2 µM (inactive) | 14.4 µM (inactive) | 70 µM (inactive) | 47.4 µM (inactive) | 51.5 µM (inactive) | 48.5 µM (inactive) | 33.2 µM (inactive) | 37.9 µM (inactive) | 67.3 µM (inactive) | 18.4 µM (inactive) | > 100 µM (inactive) | > 100 µM (inactive) |
| COc1ccc(C2C=C(c3ccc4c(c3)OCO4)Oc3c2c(=O)oc2ccccc32)cc1OC (stereo not given) | 0.839 µM (active) | 0.406 µM (active) | 0.446 µM (active) | 0.443 µM (active) | > 100 µM (inactive) | 34 µM (inactive) | 0.434 µM (active) | 0.15 µM (active) | 0.506 µM (active) | 0.361 µM (active) | 0.502 µM (active) | 0.402 µM (active) | 0.344 µM (active) | 0.425 µM (active) | 0.482 µM (active) | 0.713 µM (active) | 1.05 µM (active) | 1.36 µM (inactive) | 0.422 µM (active) | 0.366 µM (active) |
